Test: Compound was evaluated for inhibition against Phospholipase A2 of Croatalus adamanteus

IC50, > 1 mM:
O=C(/C=C\N(O)C1CCCCC1)c1ccc(F)cc1, CC(=O)ON(C=CC(=O)c1ccc(F)cc1)Cc1ccccc1 [1-(4-fluorophenyl)-3-benzyl-3-acetyloxyamino-propenone], CON(/C=C\C(=O)c1ccc(F)cc1)Cc1ccccc1 [(Z)-3-(Benzyl-methoxy-amino)-1-(4-fluoro-phenyl)-propenone]

— BindingDB's records for doi:10.1016/S0960-894X(00)80622-8 (1992)
